The values below come from US20240327382A1 (ALMAC DISCOVERY LIMITED, priority 2021, published 2024).

SMILES strings stand for the structures. pIC50: −log10 of the molar value.

The target in this test is T1, Full-length USP19 (Homo sapiens, UniProt O94966).
T1 construct: Full-length USP19 was purchased from Boston Biochem (E-576); purchased Boston Biochem E-576
T1 sequence (O94966 1-1318): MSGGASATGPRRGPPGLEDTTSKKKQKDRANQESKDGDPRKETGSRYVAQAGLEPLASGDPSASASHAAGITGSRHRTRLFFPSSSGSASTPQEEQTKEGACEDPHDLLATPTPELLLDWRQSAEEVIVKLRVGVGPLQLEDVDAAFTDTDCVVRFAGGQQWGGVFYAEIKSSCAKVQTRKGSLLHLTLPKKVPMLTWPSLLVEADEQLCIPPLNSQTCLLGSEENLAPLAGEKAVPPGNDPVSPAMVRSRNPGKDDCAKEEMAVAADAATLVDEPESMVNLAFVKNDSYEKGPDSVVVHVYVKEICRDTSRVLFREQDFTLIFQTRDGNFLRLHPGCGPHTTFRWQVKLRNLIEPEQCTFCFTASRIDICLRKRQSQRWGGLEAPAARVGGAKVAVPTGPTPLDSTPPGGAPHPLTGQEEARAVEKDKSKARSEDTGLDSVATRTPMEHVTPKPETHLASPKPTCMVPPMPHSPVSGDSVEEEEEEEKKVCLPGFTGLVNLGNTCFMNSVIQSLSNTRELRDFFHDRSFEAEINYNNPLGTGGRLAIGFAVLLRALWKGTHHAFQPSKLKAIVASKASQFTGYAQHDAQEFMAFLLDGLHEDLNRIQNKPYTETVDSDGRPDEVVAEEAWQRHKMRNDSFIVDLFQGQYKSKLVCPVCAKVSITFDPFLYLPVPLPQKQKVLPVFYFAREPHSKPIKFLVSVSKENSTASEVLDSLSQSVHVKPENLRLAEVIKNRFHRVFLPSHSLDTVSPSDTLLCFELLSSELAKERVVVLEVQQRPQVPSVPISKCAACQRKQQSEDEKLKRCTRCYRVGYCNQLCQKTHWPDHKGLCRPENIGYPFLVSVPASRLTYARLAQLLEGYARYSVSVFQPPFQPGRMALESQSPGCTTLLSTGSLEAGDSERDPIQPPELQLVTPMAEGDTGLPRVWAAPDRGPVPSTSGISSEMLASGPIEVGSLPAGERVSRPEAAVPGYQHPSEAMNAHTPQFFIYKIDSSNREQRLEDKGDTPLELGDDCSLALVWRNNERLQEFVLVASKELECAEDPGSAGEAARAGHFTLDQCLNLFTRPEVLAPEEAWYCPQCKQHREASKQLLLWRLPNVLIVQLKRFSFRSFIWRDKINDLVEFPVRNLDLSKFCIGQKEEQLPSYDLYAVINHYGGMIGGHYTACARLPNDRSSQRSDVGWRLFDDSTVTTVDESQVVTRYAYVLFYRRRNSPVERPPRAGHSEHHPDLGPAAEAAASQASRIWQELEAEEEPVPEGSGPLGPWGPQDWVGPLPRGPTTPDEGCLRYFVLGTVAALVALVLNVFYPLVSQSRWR
Kind of test: USP19 fluorescence polarisation (FP) assay, Ubiquitin-Lys-TAMRA substrate. The format is biochemical. The note with it: average of at least two duplicate experiments. The method, boiled down: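 Full-length human USP19 (added at 2.5 nM) was preincubated 30 min at RT with inhibitor (serial dilutions 200 μM to 2 μM) in 50 mM HEPES pH 7.4, 150 mM NaCl, 5 mM DTT, 0.05% BSA, 0.05% CHAPS. Ubiquitin-Lys-TAMRA isopeptide substrate (added at 500 nM) started the reaction, and FP (Ex 530/Em 575 nm) was read every 15 min over 90 min. IC50 came from non-linear regression of signal normalised to no-compound control, averaged over at least two duplicate experiments.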

For `O=C(N1CC[C@@H](Cn2cnc(-c3ccccc3)cc2=O)C2(CCCC2)C1)N1CC[C@@H](NCc2ncccn2)C[C@H]1c1cc(F)ccc1F` [Example 169, 3-(((R)-7-((2S,4R)-2-(2,5-Difluorophenyl)-4-((pyrimidin-2-ylmethyl)amino)piperidine-1-carbonyl)-7-azaspiro[4.5]decan-10-yl)methyl)-6-phenylpyrimidin-4(3H)-one], the negative-log IC50 (pIC50) was over 8.00.

Regarding `N[C@@H]1CCN(C(=O)N2CC[C@H](Cn3cnc(-c4ccccc4)cc3=O)C3(CCCC3)C2)[C@H](c2ccccc2)C1` [Example 26], the pIC50 was 6.00 to 7.00.

`O=C(O)[C@@H]1CCN(C(=O)N2CC[C@@H](Cn3cnc(-c4ccccc4)cc3=O)C3(CCCC3)C2)[C@H](c2ccccc2)C1` [Example 175, (2S,4R)-1-((R)-10-((6-oxo-4-phenylpyrimidin-1(6H)-yl)methyl)-7-azaspiro[4.5]decane-7-carbonyl)-2-phenylpiperidine-4-carboxylic acid]: the pIC50 was 6.00 to 7.00. Take `N[C@@H]1CC[C@@H](c2ccccc2)N(C(=O)N2CC[C@@H](Cn3cnc(-c4ccccc4)cc3=O)C3(CCCC3)C2)C1` (racemic) [Example 188, 3-(((R)-7-((2S,5R)-5-Amino-2-phenylpiperidine-1-carbonyl)-7-azaspiro[4.5]decan-10-yl)methyl)-6-phenylpyrimidin-4(3H)-one and 3-(((R)-7-((2R,5S)-5-amino-2-phenylpiperidine-1-carbonyl)-7-azaspiro[4.5]decan-10-yl)methyl)-6-phenylpyrimidin-4(3H)-one]: the pIC50 was 7.00 to 8.00. To `O=C(N1CC[C@@H](Cn2cnc(C3CC3)cc2=O)C2(CCCC2)C1)N1CC[C@@H](NCC(F)F)C[C@H]1c1cc(F)ccc1F` [Example 182, 6-Cyclopropyl-3-(((R)-7-((2S,4R)-4-((2,2-difluoroethyl)amino)-2-(2,5-difluorophenyl)piperidine-1-carbonyl)-7-azaspiro[4.5]decan-10-yl)methyl)pyrimidin-4(3H)-one] belongs 7.00 to 8.00. As for `COc1ccccc1-c1cc(=O)n(C[C@@H]2CCN(C(=O)N3CCNC[C@H]3c3cccc(F)c3)CC23CCCC3)cn1` [Example 115, 3-(((R)-7-((R)-2-(3-Fluorophenyl)piperazine-1-carbonyl)-7-azaspiro[4.5]decan-10-yl)methyl)-6-(2-methoxyphenyl)pyrimidin-4(3H)-one], the negative logarithm of the IC50 (pIC50) was over 8.00. Regarding `N[C@@H]1CCN(C(=O)N2CCC(F)(Cn3cnc(-c4ccccc4)cc3=O)C3(CCCC3)C2)[C@H](c2ccccc2)C1` (stereo partly drawn) [Example 57, 3-((7-((2S,4R)-4-Amino-2-phenylpiperidine-1-carbonyl)-10-fluoro-7-azaspiro[4.5]decan-10-yl)methyl)-6-phenylpyrimidin-4(3H)-one], the pIC50 is over 8.00. `O=C(N1CC[C@@H](Cn2cnc(-c3ccccc3)cc2=O)C2(CCCC2)C1)N1CC[C@@H](NCC(F)F)C[C@H]1c1ccccc1` [Example 71, 3-(((R)-7-((2S,4R)-4-((2,2-Difluoroethyl)amino)-2-phenylpiperidine-1-carbonyl)-7-azaspiro[4.5]decan-10-yl)methyl)-6-phenylpyrimidin-4(3H)-one]: the pIC50 is over 8.00.

For `CN[C@@H]1CCN(C(=O)N2CC[C@@H](Cn3cnc(-c4ccccc4)cc3=O)C3(CCCC3)C2)[C@H](c2cccc(F)c2F)C1` [Example 132, 3-(((R)-7-((2S,4R)-2-(2,3-Difluorophenyl)-4-(methylamino)piperidine-1-carbonyl)-7-azaspiro[4.5]decan-10-yl)methyl)-6-phenylpyrimidin-4(3H)-one], the pIC50 is over 8.00. Take `CN[C@@H]1CCN(C(=O)N2CC[C@@H](Cn3cnc(-c4ccccc4C)cc3=O)C3(CCCC3)C2)[C@H](c2cc(F)cc(F)c2)C1` [Example 146, 3-(((R)-7-((2S,4R)-2-(3,5-Difluorophenyl)-4-(methylamino)piperidine-1-carbonyl)-7-azaspiro[4.5]decan-10-yl)methyl)-6-(o-tolyl)pyrimidin-4(3H)-one]: the negative logarithm of the IC50 (pIC50) was over 8.00. To `COc1ccccc1-c1cc(=O)n(C[C@]2(OC)CCN(C(=O)N3CCNC[C@H]3c3cc(F)ccc3F)CC23CCCC3)cn1` [Example 187, 3-(((S)-7-((R)-2-(2,5-Difluorophenyl)piperazine-1-carbonyl)-10-methoxy-7-azaspiro[4.5]decan-10-yl)methyl)-6-(2-methoxyphenyl)pyrimidin-4(3H)-one] belongs over 8.00; to `CN[C@@H]1CCN(C(=O)N2CC[C@](Cn3ccc(-c4ccccc4)cc3=O)(OC)C3(CCCC3)C2)[C@H](c2ccccc2)C1` [Example 58, 1-(((S)-10-Methoxy-7-((2S,4R)-4-(methylamino)-2-phenylpiperidine-1-carbonyl)-7-azaspiro[4.5]decan-10-yl)methyl)-4-phenylpyridin-2(1H)-one], over 8.00.

Consider `CC1(C)CN(C(=O)N2CC[C@@H](N)C[C@H]2c2ccccc2)CCC1Cn1cnc(-c2ccccc2)cc1=O` (stereo partly drawn) [Example 19, 3-((1-((2S,4R)-4-Amino-2-phenylpiperidine-1-carbonyl)-3,3-dimethylpiperidin-4-yl)methyl)-6-phenylpyrimidin-4(3H)-one], for which the pIC50 is over 8.00. For `CN[C@@H]1CCN(C(=O)N2CC[C@@H](Cn3cnc4ccc(F)cc4c3=O)C3(CCCC3)C2)[C@H](c2cccc(F)c2)C1` [Example 167, 6-Fluoro-3-(((R)-7-((2S,4R)-2-(3-fluorophenyl)-4-(methylamino)piperidine-1-carbonyl)-7-azaspiro[4.5]decan-10-yl)methyl)quinazolin-4(3H)-one], the negative-log IC50 (pIC50) was over 8.00. Take `N[C@@H]1CCN(C(=O)N2CC[C@@H](Cn3ccc(-c4ccccc4)cc3=O)C3(CCCC3)C2)[C@H](c2cc(F)ccc2F)C1` [Example 87, 1-(((R)-7-((2S,4R)-4-Amino-2-(2,5-difluorophenyl)piperidine-1-carbonyl)-7-azaspiro[4.5]decan-10-yl)methyl)-4-phenylpyridin-2(1H)-one]: the pIC50 is over 8.00.

As for `N[C@@H]1CCN(C(=O)N2CCC(Cn3cnc4c(cnn4C4CC4)c3=O)C3(CCCC3)C2)[C@H](c2ccccc2)C1` (stereo partly drawn) [Example 35, 5-((7-((2S,4R)-4-Amino-2-phenylpiperidine-1-carbonyl)-7-azaspiro[4.5]decan-10-yl)methyl)-1-cyclopropyl-1,5-dihydro-4H-pyrazolo[3,4-d] pyrimidin-4-one], the pIC50 is over 8.00. To `CCN[C@@H]1CCN(C(=O)N2CC[C@@H](Cn3cnc4ccc(F)cc4c3=O)C3(CCCC3)C2)[C@H](c2cc(F)ccc2F)C1` [Example 162, 3-(((R)-7-((2S,4R)-2-(2,5-Difluorophenyl)-4-(ethylamino)piperidine-1-carbonyl)-7-azaspiro[4.5]decan-10-yl)methyl)-6-fluoroquinazolin-4(3H)-one] belongs over 8.00.

`O=C(O)CN[C@@H]1CCN(C(=O)N2CC[C@@H](Cn3cnc(-c4ccccc4)cc3=O)C3(CCCC3)C2)[C@H](c2ccccc2)C1` [Example 106, Sodium ((2S,4R)-1-((R)-10-((6-Oxo-4-phenylpyrimidin-1(6H)-yl)methyl)-7-azaspiro[4.5]decane-7-carbonyl)-2-phenylpiperidin-4-yl)glycinate]: the pIC50 is over 8.00.

Regarding `O=C(N1CC[C@@H](Cn2ccc(-c3ccccc3)cc2=O)C2(CCCC2)C1)N1CC[C@@H](NC2CS(=O)(=O)C2)C[C@H]1c1ccccc1` [Example 50, 1-(((R)-7-((2S,4R)-4-((1,1-Dioxidothietan-3-yl)amino)-2-phenylpiperidine-1-carbonyl)-7-azaspiro[4.5]decan-10-yl)methyl)-4-phenylpyridin-2(1H)-one], the pIC50 was 7.00 to 8.00. For `CN[C@@H]1CCN(C(=O)N2CC[C@@H](Cn3cnc4ccc(F)cc4c3=O)C3(CCCC3)C2)[C@H](c2ccccc2)C1` [Example 101, 6-Fluoro-3-(((R)-7-((2S,4R)-4-(methylamino)-2-phenylpiperidine-1-carbonyl)-7-azaspiro[4.5]decan-10-yl)methyl)quinazolin-4(3H)-one], the negative logarithm of the IC50 (pIC50) is over 8.00.
